# Patent publication US6087375A, “Methods of treating or preventing thromboses” (priority 1999, dated 2000)
# Tests used:
# [1] = target: human serum albumin (HSA) (Homo sapiens, UniProt P02768); test: Mass spectrometric analysis of conjugation to HSA (HPLC/ESIMS); type: binding; details: HSA 5 μM, 1 hour, room temperature
# Experimental: (§1) All samples were analyzed using a high performance liquid chromatograph (HPLC) coupled in-line to an electrospray ionization (ESI) mass spectrometer (MS) which is termed HPLC/ESIMS. Some samples were also analyzed using a matrix-assisted laser desorption ionization (MALDI) time-of-flight (TOF) mass spectrometer which is termed (MALDI-TOFMS).
# (§2) Samples for HPLC/ESIMS were either prepared as duplicate reaction samples or were part of the same reaction samples which were used in the ELISA assays described below. These samples were injected directly only the HPLC/ESIMS without any manipulation other than dilution with water, where the PBS, DMSO, and unreacted derivative molecules are separated from the protein-argatroban derivative molecule conjugate. Samples for MALDI-MS were first HPLC-purified and mixed 1:1 directly on the stainless steel analysis plate with a matrix of 10 mg/ml sinnapinic acid in 50% acetonitrile/50% water. The mixture was then dried with a gentle flow of air to allow for crystallization and inserted into the instrument for laser ionization.
# (§3) The HPLC is a Hewlett Packard 1090 Series II liquid chromatogram with a diode array detector. The column used for separation is a Brownlee aquapore OD-300 reversed phase C18 column, 1 mm×10 cm, 300 Å pore size, 7 μm particle diameter. The mass spectrometer to which the HPLC is connected using fused Silica capillary tubing is a Sciex API-300 triple quadrupole mass spectrometer with an ionspray source to allow for atmospheric pressure ionization of a liquid flowing continuously into the instrument. The MALDI-TOFMS is a Perceptive Biosystems Voyager Elite DE instrument run in the linear mode.
# [2] = target: rabbit serum albumin (RSA) (Oryctolagus cuniculus, UniProt P49065); test: Mass spectrometric analysis of conjugation to RSA (HPLC/ESIMS, MALDI-TOFMS); type: binding; details: HPLC/ESIMS, RSA 4.5 μM, 1 hour, room temperature
# rabbit serum albumin (RSA), sequence (P49065 25-608): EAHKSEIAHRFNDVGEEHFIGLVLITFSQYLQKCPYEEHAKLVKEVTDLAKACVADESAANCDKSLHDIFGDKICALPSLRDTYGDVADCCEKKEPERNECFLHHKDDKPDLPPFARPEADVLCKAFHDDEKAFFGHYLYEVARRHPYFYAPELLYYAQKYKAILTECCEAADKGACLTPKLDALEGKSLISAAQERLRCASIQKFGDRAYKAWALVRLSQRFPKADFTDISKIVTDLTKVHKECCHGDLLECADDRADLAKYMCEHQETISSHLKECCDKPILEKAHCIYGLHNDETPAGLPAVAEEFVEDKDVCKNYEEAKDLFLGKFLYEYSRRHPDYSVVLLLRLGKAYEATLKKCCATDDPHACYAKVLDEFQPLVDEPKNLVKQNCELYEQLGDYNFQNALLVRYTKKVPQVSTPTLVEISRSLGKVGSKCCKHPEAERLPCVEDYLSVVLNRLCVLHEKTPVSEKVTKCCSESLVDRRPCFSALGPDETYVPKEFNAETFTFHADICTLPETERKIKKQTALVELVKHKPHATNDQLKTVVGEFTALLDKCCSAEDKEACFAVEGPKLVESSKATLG
# Experimental: as §1, §2, §3
# The conjugate was prepared according to the following protocol. […] Sham samples consist of the RSA incubated for the same length of time at RT in 2% DMSO in PBS. Each of the samples was then concentrated to a final volume of 1.5 mL using Amicon Centricon 30 filtration/concentration devices. The concentrated samples were then desalted on Pierce's 5 ML Kwiksep excellulose plastic desalting columns. The excluded volumes containing RSA or argatroban-C6-RSA were then subjected to BCA microprotein estimation and lyophilization. In addition, these samples were analyzed by LC/MS, sandwich ELISA assays (described above) to measure thrombin binding and immunoblotting.
# [3] = test system: human platelets (thrombin-induced aggregation); test: Thrombin-induced platelet aggregation assay; type: cell-based; details: for IC50 (estimated concentration which inhibits 50% of the aggregation): 0.5 U/mL human thrombin, 37° C., conjugate: average of 10 argatrobans/RSA used
# Experimental: The conjugate was prepared according to the following protocol. A 15 μM solution of RSA in PBS was reacted with 200 μM argatroban-C6 NHS ester for 1 hour at room temperature. Sham samples consist of the RSA incubated for the same length of time at RT in 2% DMSO in PBS. Each of the samples was then concentrated to a final volume of 1.5 mL using Amicon Centricon 30 filtration/concentration devices. The concentrated samples were then desalted on Pierce's 5 ML Kwiksep excellulose plastic desalting columns. The excluded volumes containing RSA or argatroban-C6-RSA were then subjected to BCA microprotein estimation and lyophilization. In addition, these samples were analyzed by LC/MS, sandwich ELISA assays (described above) to measure thrombin binding and immunoblotting.
# Platelets were purified from freshly drawn human blood diluted with the anticoagulant buffer ACD (9 mls of blood to 1 mL of buffer). The blood was centrifuged for 25 min at 200×g. The platelet-rich plasma (PRP) was recovered with a plastic pipette. The PRP was centrifuged for 15 min at 3,000×g in v-shaped plastic tubes. The supernatant, called platelet-poor plasma (PPP), was then removed and saved, and the platelets were resuspended in buffer A1 (35 mM citric acid, 103 mM NaCl, 5 mM each of glucose and KCl, 2 mM CaCl2, 1 mM […], 3.5 mg/mL BSA, 0.1 μM PGE1 and 0.3 U/mL of apyrase at pH 6.5). The resuspended platelets were washed 2 times with buffer A1. After the last wash, the platelets were resuspended in buffer B1 (137 mM NaCl, 2.6 mM KCL 12 mM NaHCO3, 0.3 mM NaH2 PO4, 3 mM CaCl2, 1 mM MgCl2, 5 mM glucose, 3.5 mg/mL BSA and […] apyrase at pH 7.4) at a density of 3×10^5 /μL. The platelets were maintained at room temperature until ready for use.
# Various parameters relevant to platelet aggregation were obtained on a four channel aggregometer manufactured by AFFI BIO. In brief, the reaction chambers are warmed to 37° C. and are agitated at a rate of 1,200 rpm. Light is passed through the reaction chambers, with 300 μL of buffer B1 used to set the 100% transmittance level for each chamber. From a series of standardization experiments, it was determined that 0.5 U/mL of human thrombin (Sigma) is an optimal aggregating concentration of thrombin and is used to set. the 0% transmittance for the instrument. Standard conditions for the assay involve incubating 250 μL of the platelet suspension with or without 50 μL of inhibitor diluted in buffer in the reaction chambers for 60 seconds at 37° C. The value of transmittance is now set as 0%. After this measurement, thrombin is added to the reaction chambers (20 μl) and transmittance is measured for the next 6 minutes. Samples were performed in triplicate.
# [4] = target: thrombin from human plasma (Homo sapiens, UniProt P00734); test: Km-based fluorogenic assay for inhibition of thrombin (Example 7); type: biochemical; set-up: from tissue; host or cells: human plasma; details: FIGS. 9 and 10
# Experimental: Thrombin from human plasma was obtained from Enzyme System Products, Dublin, Calif., in glycerol:water 1:1, 11.4 mg/ml, 3800 U/mg, MW 36,700, and stored undiluted at -20° C. It was freshly diluted the day of use.
# To dilute for the assay, 0.67 μl (25 Units) of thrombin was pipetted into 5 ml of 0.1 mg/ml BSA (from Pierce, Catalog No. 23209, BSA fraction V, a 2 mg/ml stock in saline with sodium azide), in cold PBS (GIBCO, Catalog No. 14190-136, without calcium chloride and magnesium chloride, pH 7.2) and briefly vortexed, yielding a stock of 5 mU thrombin/μl.
# The substrate was N-tBOC-β-Benzyl-Asp-Pro-Arg-7-Amido4-Methylcoumarin HCl and was obtained from Sigma, Catalog No. B4028, Lot 122H0070, F.W. 770.3. Five mg was dissolved in […] DMSO for a 4 mM stock. The stock was stored in 200 μl aliquots at -20° C. in the dark.
# An alternative substrate was N-tBOC-Val-Pro-Arg-7-Amido4-Methylcoumarin HCl and was obtained from Sigma, Catalog No. B-9385, Lot 53H0805, F.W. of free base 627.7. Five mg was dissolved in 1.863 ml DMSO for a 4 mM stock. The stock was stored in 200 μl aliquots at -20° C. in the dark.
# The fluorescent standard was 7-Amido4-Methylcoumarin and was obtained from Aldrich, Catalog No. 25,737-0, MW 175.19. […]
# Initial readings were taken to ensure exclusion of rogue wells with abnormally high backgrounds (λ excitation at 360 nm, bandwidth […], λ emission, 460 nm, bandwidth 40 nm). Then, 25 μl of a 10×stock of the putative inhibitor were added per well, mixed for 5 seconds and read kinetically for 10 minutes at ambient temperature to assess background interference and/or any increase in hydrolysis of substrate due to inhibitor.
# The thrombin assay was then initiated by adding 25 μl of thrombin/well with a multichannel pipettor and mixed for 5 seconds. The appearence of the fluorescent product (free 7-amido-4-methylcoumarin released from the peptide by thrombin) was followed simultaneously in 48 wells (one reading per minute for 30 minutes, λ excitation at 360 nm, bandwidth 40 nm, λ emission, 460 nm, bandwidth 40 nm). […]
# [5] = test system: thrombin; test: Sandwich ELISA for thrombin binding of conjugated proteins (anti-thrombin detection); details: hGPA conjugate, capture mAb 5F4, FIG. 4
# Experimental: (§4) The plates were incubated at room temperature for 30 minutes and washed as above.
# as §4
# Next, 100 μl/well of ABC-HRP (Vector, catalog no. PK4000) was added, each component diluted 1:500 in PBS, pH 7.4, with 0.1% TWEEN 20 and incubated 30 minutes at room temperature prior to use.
# [6] = test system: anti-KLH-argatroban antibody; test: Sandwich ELISA using polyclonal anti-KLH-argatroban antibodies; type: binding, rabbit; details: for concentration down to which detected: hGPA conjugate
# Experimental: The reaction was quenched by adding hydroxylamine, pH 7.8 to a final concentration of 50 mM and incubating at room temperature for 10 minutes.
# Rabbit anti-HSA monoclonal antibody (Boehringer/Mannheim, catalog no. 605001) diluted 1:5000 in PBS, pH 7.4 or mouse anti-hGPA monoclonal antibody (BioAtlan-tic/CRTS, mAb 5F4, diluted to 10 μg/ml in 0.1 M sodium acetate, pH 4.5 or mAb 3C10 diluted 1:500 or mAb 3E4 diluted 1:1000 in PBS, pH 7.4 - each antibody recognizes a different epitope of hGPA), were used to capture respective proteins by aliquotting 100 μl/well into a NUNC Maxisorp F96 plate (catalog no. 439454). The plates were incubated overnight at 4° C., were then blocked by the addition of 200 μl/well of 1% BSA/PBS and incubated at room temperature for 1 hour. The plates were then washed 5 times by submersion in PBS, pH 7.4.
# Samples were incubated on the plates for 2 hours at room temperature and then were washed as above.
# The plates were then incubated at room temperature for 30 minutes and washed as above.
# Biotinylated goat anti-rabbit IgG (Vector, catalog no. BA1000) was diluted 1:1000 in 1% BSA/PBS, pH 7.4 and 100 μl/well added to all wells. The plates were incubated at room temperature for 30 minutes and washed as above.
# Next, 100 μl/well of ABC-HRP (Vector, catalog no. PK4000) was added, each component diluted 1:500 in PBS, pH 7.4, with 0.1% TWEEN 20 and incubated 30 minutes at room temperature prior to use. The plates were then washed 10 times by submersion in PBS, pH 7.4.
# human serum albumin (HSA), sequence (P02768 25-609): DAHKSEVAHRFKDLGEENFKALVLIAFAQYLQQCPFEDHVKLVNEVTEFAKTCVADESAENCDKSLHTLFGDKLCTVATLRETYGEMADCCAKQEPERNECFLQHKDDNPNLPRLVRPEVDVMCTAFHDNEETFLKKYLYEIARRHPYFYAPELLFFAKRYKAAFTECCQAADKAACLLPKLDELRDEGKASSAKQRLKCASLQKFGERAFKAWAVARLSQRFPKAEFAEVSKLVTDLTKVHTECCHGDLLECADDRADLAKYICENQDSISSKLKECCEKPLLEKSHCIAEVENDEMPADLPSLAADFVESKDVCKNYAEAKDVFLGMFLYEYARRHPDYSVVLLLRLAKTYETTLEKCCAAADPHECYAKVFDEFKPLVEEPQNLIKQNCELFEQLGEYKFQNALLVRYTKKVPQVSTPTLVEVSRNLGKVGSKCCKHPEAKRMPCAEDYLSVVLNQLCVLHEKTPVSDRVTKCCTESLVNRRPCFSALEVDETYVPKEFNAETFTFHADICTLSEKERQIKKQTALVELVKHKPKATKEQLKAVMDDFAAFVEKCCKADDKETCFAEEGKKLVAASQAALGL
molecule,measurement,setting,value
CC1CNc2c(cccc2S(=O)(=O)NC(CCCNC(=N)N)C(=O)N2CCC(C)CC2C(=O)NCCCCCCCCCCCC(=O)ON2C(=O)CCC2=O)C1 (stereo not shown) [compound YL-015-11],covalent addition of argatroban derivative molecules per HSA molecule,[1]; 0.5 μM ester,0-4 argatroban derivative molecules per HSA molecule
same,covalent addition of argatroban derivative molecules per HSA molecule,[1]; 100 μM ester,1-5 argatroban derivative molecules per HSA molecule
same,covalent addition of argatroban derivative molecules per RSA molecule,[2]; 0.5 μM ester,0-3 argatroban derivative molecules per RSA molecule
same,covalent addition of argatroban derivative molecules per RSA molecule,[2]; 100 μM ester,1-5 argatroban derivative molecules per RSA molecule
"CC1CNc2c(cccc2S(=O)(=O)N[C@@H](CCCNC(=N)N)C(=O)N2CC[C@@H](C)C[C@@H]2C(=O)O)C1 (stereo partly shown) [argatroban, reference compound]",IC50 (estimated concentration which inhibits 50% of the aggregation),[3],approximately 0.1 μM
same,IC50 (estimated concentration which inhibits 50% of the aggregation),[3]; listed as Free argatroban,0.1 to 0.15 µM
RSA sham: RSA incubated for the same length of time at RT in 2% DMSO in PBS,IC50 (estimated concentration which inhibits 50% of the aggregation),[3],> 150 µM
same,interference with platelet aggregation,[3]; even at 150 μM,did not interfere with platelet aggregation even at 150 μM
same,thrombin inhibition,[4],not inhibitory at any concentration assayed
"hGPA reacted with argatroban-C6 NHS ester: human glycophorin A protein reacted with argatroban-C6 NHS ester (YL-015-35) (conjugate, UniProt P02724 20-150, looked up, argatroban-C6 conjugate) Glycophorin-A: LSTTEVAMHTSTSSSVTKSYISSQTNDTHKRDTYAATPRAHEVSEISVRTVYPPEEETGERVQLAHHFSEPEITLIIFGVMAGVIGTILLISYGIRRLIKKSPSDVKPLPSPDTDVPLSSVEIENPETSDQ",concentration giving a detectable signal (binding of thrombin),[5],approximately 30 ng/ml
same,increase of OD490 versus prequenched ester or protein alone,"[6]; HSA and hGPA samples, FIGS. 5-8",significant increase of OD490
same,concentration down to which detected,[6]; goat anti-rabbit erythrocyte capture,60 ng/mL
same,concentration down to which detected,[6]; mouse anti-hGPA capture,30 ng/mL
same,detection of hGPA-argatroban derivative,"[6]; hGPA, 3C10 mAb, FIG. 7",at lower levels
same,detection of hGPA-argatroban derivative,"[6]; hGPA, 3E4 mAb, FIG. 8",at lower levels
same,concentration at which a significant signal above background was detected,"[6]; hGPA, 5F4 mAb, FIG. 6",~12 ng/mL
